Paper PMC11124387, “A Reliable Multifaceted Solution against Foodborne Viral Infections: The Case of RiLK1 Decapeptide” (Molecules, 2024)

Type: physicochemical
Experimental: Circular Dichroism (CD) analysis was performed by a Jasco J-810 spectropolarimeter. The samples were loaded into a quartz cuvette of 0.1 cm path length (Hellma Analytics), and the spectra were recorded in the 195–250 nm range at a scan speed of 20 nm/min, averaging 5 scans. CD experiments were carried out in 10 mM Tris-HCl buffer, pH 7.0, as a function of SDS concentrations (3, 50, and 150 mM) at a peptide concentration of 50 µM. The folding kinetic measurements of the peptides were performed after the addition of SDS (50 mM) to each sample (50 µM in 10 mM Tris-HCl, pH 7.0) up to 24 h of incubation. For thermal stability analyses, the peptides were prepared to a final concentration of 50 μM in 10 mM Tris-HCl, pH 7.0, and then they were incubated at 4 and 25 °C up to 48 h before acquiring the CD spectra in the presence of 50 mM SDS. A blank spectrum of a sample containing all components except the peptide was acquired for the baseline correction of the CD spectra of the peptide. The mean residue ellipticity ([θ], deg cm^2 dmol^−1) was obtained by the equation [θ] = 100 θ/cnl, where θ is the ellipticity (mdeg), c is the peptide concentration (mM), n is the number of residues, and l is the path length (cm).
Tryptophan (Trp) fluorescence emission spectra were recorded at 25 °C on a Shimadzu RF-6000 spectrofluorometer (Kyoto, Japan), with both excitation and emission slit widths set at 5 nm. The intrinsic Trp was excited at a wavelength of 280 nm and the emission was monitored between 300 and 400 nm. Fluorescence measurements were carried out in 10 mM Tris-HCl buffer, pH 7.0, as a function of SDS concentrations (3, 50, and 150 mM) at a peptide concentration of 50 µM. The folding kinetic experiments of AVP2 and RiLK30 were performed after the addition of SDS (50 mM) to each sample (50 µM concentration in 10 mM Tris-HCl buffer, pH 7.0) up to 24 h of incubation. The effect of temperature on peptide folding was analyzed by dissolving the peptides at a final concentration of 50 µM in 10 mM Tris-HCl buffer, pH 7.0, and incubating them at 4 and 25 °C up to 48 h. The spectra were recorded in the presence of 50 mM SDS.

## KLRWVKIWKK-NH2 [RiLK30, newly designed RiLK1 derivative, Arg residues exchanged with Lys and Lys3 with Arg]
pH 7
  thermal (conformational) stability in SDS micellar solution: at least 48 h
Peptide 50 µM, 10 mM Tris-HCl pH 7.0, SDS 50 mM, 24 h incubation at 37 °C (legend: 25 °C)
  conformational rearrangement over time (CD and fluorescence spectra): did not appear to undergo significant changes
Peptide 50 µM, 10 mM Tris-HCl pH 7.0, SDS 3, 50, 150 mM, 25 °C
  self-aggregation (CD in SDS): high propensity to self-aggregate
